Measured values published in US20160347807A1, “TARGETING P53 AND ITS DNA-BINDING DOMAIN” (UNIVERSITY OF UTAH RESEARCH DOUNDATION, priority 2014, published 2016).
“Also recorded” adds a separate entry of the source.

Tests used:
HeLa cells = experiment: 7-AAD assay in HeLa cells; type: cell-based, human; conditions: 24 h after transfection
Procedure: (§1) Transfected T47D, MCF-7, MDA-MB-231, HeLa and H1373 cells were pelleted and resuspended in 500 μL PBS (Invitrogen) containing 1 μM 7-aminoactinomycin D (7-AAD) (Invitrogen) for 30 min prior to analysis following the recommended protocol from the manufacturer. The assay was performed 48 h after transfection for T47D, MCF-7 and H1373 and 24 h after transfection for MDA-MB-231 and HeLa. Only EGFP positive cells were analyzed by using the FACS Canto-II (BD-BioSciences) with FACS Diva software. EGFP and 7-AAD were excited with the 488 nm laser, and were detected at 507 nm and 660 nm, respectively. Independent transfections of each construct were tested three times (n=3).
(§2) Transfected T47D, H1373, SKOV-3 and HeLa cells were pelleted and re-suspended in 500 μL PBS (Invitrogen) containing 1 μM 7-aminoactinomycin D (7-AAD) (Invitrogen) for 30 min prior to analysis. T47D and H1373 cells were analyzed 48 h after transfection, while SKOV-3 and HeLa cells were analyzed 24 h after transfection (time points optimized empirically). Only EGFP positive cells were assayed using the FACS Canto-II (BD-BioSciences) with FACS Diva software as previously. EGFP and 7-AAD were excited at 488 nm, and detected at 507 nm and 660 nm, respectively. Independent transfections of each construct were assayed three times (n=3). The highest value (EGFP positive cells stained with 7-AAD) was set at 100%, and the lowest at 0% (relative 7-AAD) as previously.

MDA-MB-231 = experiment: 7-AAD assay in MDA-MB-231 cells; type: cell-based, human; conditions: MDA-MB-231, 24 h after transfection
Procedure: as §1

T47D cells [1] = experiment: Rescue experiment using BFP-Bcl-XL (7-AAD) in T47D cells; type: cell-based, human; conditions: 48 h after transfection, Bcl-XL overexpression
Procedure: T47D cells were co-transfected with 1 pmol of EGFP constructs and 1 pmol of BFP-Bcl-XL (BFP tag is necessary for gating Bcl-XL transfected cells). 48 h after transfection the 7-AAD assay was performed as described above. FACSCanto-II (BD-BioSciences) and FACSDiva software were used for EGFP and BFP gating. Excitation was set at 488 nm, and detected at 507 nm and 660 nm for EGFP and 7-AAD, respectively. BFP was excited at 405 nm and detected at 457 nm. Independent transfections of each construct were tested three times (n=3).

T47D cells [2] = experiment: Colony forming assay in T47D cells; type: cell-based, human; conditions: eight days after treatment
Procedure: Transfected T47D cells were harvested 24 h post transfection and resuspended in RPMI (Invitrogen) at a concentration of 3.0×10^5 cells/mL. The Cytoselect® 96-well cell transformation assay (Cell Biolabs, San Diego, Calif.) was used following manufacturer's recommendations. Equal amount of 1.2% Agar Solution, 2×DMEM/20% FBS media, and cell suspension (1:1:1) were mixed and 75 μL of the mixture was added to a 96-well plate containing a solidified base agar layer (50 μL of previously solidified 1.2% Agar Solution), and allowed to solidify at 4° C. for 15 min. The following steps were performed according to the manufacture's recommendations. A Spectra Max M2 plate reader (Molecular Devices, Sunnyvale, Calif.) was used to detect fluorescence using a 485/520 nm filter set. Independent transfections of each construct were tested three times (n=3).

T47D cells [3] = experiment: Caspase-9 assay (SR FLICA) in T47D cells; type: cell-based, human; conditions: 48 h after transfection
Procedure: T47D cells were probed 48 h after transfection using SR FLICA Caspase-9 Assay Kit (Immunochemistry Technologies, Bloomington, Minn.). Cells were incubated with SR FLICA Caspase-9 reagent for 60 min per manufacturer's recommendations, pelleted and resuspended in 300 μL 1× wash buffer (Immunochemistry Technologies). Only EGFP positive cells were analyzed by using the FACS Canto-II (BD-BioSciences) with FACS Diva software. EGFP and FLICA were excited with the 488 nm (emission filter 530/35) and the 561 laser (emission filter 585/15), respectively. Independent transfections of each construct were tested three times (n=3).
As previously described, 48 h after transfection, T47D cells were tested with SR FLICA Caspase-9 Assay Kit (Immunochemistry Technologies, Bloomington, Minn.). Cells were incubated with SR FLICA Caspase-9 reagent for 60 min, pelleted and re-suspended in 300 μL, 1× wash buffer (Immunochemistry Technologies). The FACS Canto-II with FACS Diva software was used to analyzed only EGFP positive cells stained with caspase-9, both were excited with the 488 nm (emission filter 530/35) and the 561 nm laser (emission filter 585/15), respectively. Independent transfections of each construct were assayed three times (n=3). The highest value (EGFP positive cells stained with caspase-9) was set as 100% and the lowest as 0% (relative caspase-9).

T47D cells [4] = experiment: Annexin V assay in T47D cells; type: cell-based, human; conditions: 48 h after transfection
Procedure: 48 h after transfection, T47D cells were pelleted and resuspended in 400 μL of annexin-V binding buffer (Invitrogen) and incubated with 5 μL of annexin-APC (annexin-V conjugated to allophycocyanin, Invitrogen) for 15 min as before. Only transfected cells were analyzed as mentioned in 7-AAD assay. EGFP and APC were excited at 488 nm and 635 nm wavelengths, respectively and detected at their corresponding 507 nm and 660 nm wavelengths. Independent transfections of each construct were tested three times (n=3).

MCF-7 = experiment: 7-AAD assay in MCF-7 cells; type: cell-based, human; conditions: MCF-7, 48 h post transfection
Procedure: as §1

T47D cells [5] = experiment: 7-AAD assay in T47D cells; type: cell-based, human; conditions: 48 h after transfection, EGFP positive cells only
Procedure: as §1, §2

H1373 cells [6] = experiment: 7-AAD rescue experiment in H1373 cells with or without p53R248Wmut; type: cell-based, human; conditions: H1373, 48 h post transfection; for apoptotic activity (7-AAD) when co-transfected with p53R248Wmut: dominant negative mutant overexpressed
Procedure: E-XL was created by inserting MTS from XL into EGFP-C1 vector. Lipofectamine was used as the transfection reagent as before. 48 h post transfection, cells were stained as described in the 7-AAD assay and gated for EGFP and BFP using the FACSCanto-II (BD-BioSciences) and FACSDiva software. Excitation for BFP was set at 405 nm and detected at 457 nm. The means from three separate experiments (n=3) were analyzed using two-way ANOVA with Bonferroni's post hoc test.

H1373 cells [7] = experiment: 7-AAD assay in H1373 cells; type: cell-based, human; conditions: H1373 (p53 null), 48 h after transfection
Procedure: as §1, §2

T47D cells [8] = experiment: TUNEL assay in T47D cells; type: cell-based, human; conditions: 48 h after transfection
Procedure: T47D cells were harvested 48 h after transfection. In situ Death Detection Kit, TMR red (Roche, Mannheim, Germany) was used following manufacturer's recommendations as before. Cells were resuspended in PBS (Invitrogen) and analyzed via the FACSAria-II (BD-Biosciences, University of Utah Core Facility). EGFP and TMR red were excited at 488 nm and 563 nm, respectively, and FACSDiva software was used to analyze the data. Independent transfections of each construct were tested three times (n=3).

endogenous Bcl-XL = molecular target: T1, endogenous Bcl-XL (Homo sapiens, UniProt Q07817); experiment: Co-immunoprecipitation with anti-GFP antibody, western blot for Bcl-XL; type: binding; conditions: T47D lysate 24 h post transfection, anti-GFP pull-down
T1 construct: endogenous in cells; host or cells: T47D human breast tumor cells
Procedure: Anti-GFP antibody (ab290, Abcam) was coupled to dynabeads using Dynabeads Antibody Coupling Kit (Invitrogen). 24 h post transfection, T47D cells were prepared using the Dynabeads Co-Immunoprecipitation Kit (Invitrogen). Cell pellets were lysed using extraction buffer B (1×IP, […] NaCl, 2 mM MgCl2, 1 mM DTT, 1% protease inhibitor). The lysate was incubated for 30 min at 4° C. with 1.5 mg of dynabeads coupled with anti-GFP antibody, and co-IP was performed per the company's protocol. The final protein complex was denatured and western blot was performed by using Bcl-XL antibody (ab 2568, Abcam).

SKOV-3 cells = experiment: 7-AAD assay in SKOV-3 cells; type: cell-based, human; conditions: SKOV-3 (p53 null), 24 h after transfection
Procedure: as §2

p53-Luc Cis-Reporter = experiment: p53 reporter gene (dual luciferase) assay in T47D cells; type: cell-based, human; conditions: 24 h post transfection
Procedure: Luminescence was detected 24 h post transfection using PlateLumino (Stratec Biomedical Systems, Birkenfeld, Germany). Independent transfections of each constructs were assayed three times (n=3). The highest value was set at 100% and lowest value (untreated cells) was set as 0% (relative luminescence).

T47D cells [9] = experiment: TMRE assay (MOMP) in T47D cells; type: cell-based, human; conditions: 36 h after transfection
Procedure: 36 h after transfection T47D cells were incubated with 100 nM tetramethylrhodamineethylester (TMRE) (Invitrogen) for 30 min at 37° C. T47D cells were pelleted and resuspended in 300 μL annexin-V binding buffer (1×) (Invitrogen). Only EGFP positive cells were analyzed by using the FACS Canto-II (BD-BioSciences) with FACS Diva software. EGFP was excited with the 488 nm laser with emission filter 530/35 and TMRE was excited with the 561 nm laser with the emission filter 585/15. Mitochondrial depolarization (loss in TMRE intensity) correlates with an increase in MOMP. Independent transfections of each construct were tested three times (n=3).
36 h after transfection T47D cells were incubated with 100 nM tetramethylrhodamine, ethylester (TMRE) (Invitrogen) for 30 min at 37° C., pelleted and resuspended in 300 μL annexin-V binding buffer (1×) (Invitrogen). The FACS Canto-II with FACS Diva software was used to analyze only EGFP positive cells (excited at 488 nm with emission 530/35) stained with TMRE (excited at 561 nm laser with the emission 585/15). Loss in TMRE intensity represents mitochondrial depolarization, which correlates with an increase in mitochondrial outer membrane permeabilization (MOMP). Independent transfections of each construct were assayed three times (n=3). The highest MOMP value was set as 100% and the lowest as 0% (relative MOMP) as before.

Substance	7-AAD positive cells (late apoptosis) (HeLa cells)	7-AAD positive cells (late apoptosis) (MDA-MB-231)	apoptotic activity (7-AAD) on cotransfection of BFP-Bcl-XL (rescue) (T47D cells [1])	transformative ability (colonies, relative fluorescence units) (T47D cells [2])	caspase-9 activation (T47D cells [3])	Annexin V positive cells (apoptotic potential) (T47D cells [4])	7-AAD positive cells (late apoptosis) (MCF-7)	7-AAD positive cells (late apoptosis) (T47D cells [5])	apoptosis (7-AAD) in the absence of p53R248Wmut (H1373 cells [6])	apoptotic activity (7-AAD) when co-transfected with p53R248Wmut (H1373 cells [6])	7-AAD positive cells (late apoptosis) (H1373 cells [7])	TUNEL positive cells (DNA fragmentation) (T47D cells [8])	co-immunoprecipitation with Bcl-XL (endogenous Bcl-XL)	7-AAD positive cells (late apoptosis) (SKOV-3 cells)	nuclear transcriptional activity (relative luminescence) (p53-Luc Cis-Reporter)	% MOMP induction (loss of TMRE fluorescence) (T47D cells [9])
DBD-XL: EGFP, DNA binding domain of p53 and MTS from Bcl-XL	statistically significant from p53-XL	significantly higher apoptotic activity compared to p53-XL	significantly reduced	significant decrease in transformative ability	higher caspase-9 activation than E-XL	significantly higher apoptotic response than p53-XL; also recorded: significantly higher than the negative control E-XL	significantly higher apoptotic activity compared to p53-XL	statistically higher than the negative control E-XL; also recorded: not statistically significant from each other	significantly higher apoptosis compared to their negative controls E-XL and EGFP	capable of rescuing apoptotic activity	significantly higher apoptotic activity compared to p53-XL	not statistically significant from each other				
p53-XL: full length p53 with EGFP on the amino terminus and the MTS from Bcl-XL (XL) on the C-terminus			significantly reduced	significant decrease in transformative ability	higher caspase-9 activation than E-XL; also recorded: triggers caspase-9 activation significantly more than DBD-XL	significantly higher than the negative control E-XL		not statistically significant from each other	significantly higher apoptosis compared to their negative controls E-XL and EGFP	capable of rescuing apoptotic activity		not statistically significant from each other	co-immunoprecipitated; also recorded: co-immunoprecipitates with endogenous Bcl-XL			
p53-BakMTS: MTS from Bak fused to the C-terminus of EGFP-p53	significant from their corresponding negative controls				significant effect; also recorded: not significantly higher from wt p53			significant apoptotic effect compared to their corresponding negative controls; also recorded: significantly higher apoptosis compared to cells transfected with MTS negative controls; also recorded: induce apoptosis similarly to wt p53			statistically higher from their negative control E-BakMTS			significantly higher than their negative control E-BakMTS	no nuclear activity	not significantly higher from wt p53
